# From PubChem BioAssay (NCI)
#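 A five-concentration, 48-hour dose response in 96-well plates underlies each endpoint, interpolated linearly between surrounding concentrations. TGI: concentration producing complete growth inhibition.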
# Assays:
# Assay in all cases: NCI tumour cell line growth inhibition, 48 h
# [1] = tested on: 786-0 renal
# [2] = tested on: SW-620 colon
# [3] = tested on: KM20L2 colon
# [4] = tested on: SF-268 CNS
# [5] = tested on: A549 NSCLC
# [6] = tested on: SR leukemia
# [7] = tested on: SK-MEL-28 melanoma
# [8] = tested on: UACC-62 melanoma
# [9] = tested on: SNB-75 CNS
# [10] = tested on: OVCAR-8 ovarian
# [11] = tested on: SF-539 CNS
# [12] = tested on: LXFL 529 NSCLC
# [13] = tested on: SN12C renal
# [14] = tested on: M14 melanoma
# [15] = tested on: RXF 393 renal
# [16] = tested on: TK-10 renal
# [17] = tested on: HL-60(TB) leukemia
# [18] = tested on: RPMI-8226 leukemia
# [19] = tested on: DLD-1 colon
# [20] = tested on: HOP-18 NSCLC
# [21] = tested on: K-562 leukemia
# [22] = tested on: CCRF-CEM leukemia
# [23] = tested on: UO-31 renal
# [24] = tested on: MOLT-4 leukemia
# [25] = tested on: OVCAR-4 ovarian
# [26] = tested on: MALME-3M melanoma
# [27] = tested on: ACHN renal
# [28] = tested on: OVCAR-5 ovarian
# [29] = tested on: OVCAR-3 ovarian
# [30] = tested on: NCI-H460 lung
# [31] = tested on: LOX IMVI melanoma
# [32] = tested on: HCT-116 colon
# [33] = tested on: DMS 273 small cell lung
# [34] = tested on: UACC-257 melanoma
# [35] = tested on: NCI-H23 lung
# [36] = tested on: HT29 colon
# [37] = tested on: SNB-78 CNS
# [38] = tested on: NCI-H226 lung
# [39] = tested on: HOP-62 NSCLC
# [40] = tested on: COLO 205 colon
# [41] = tested on: SK-OV-3 ovarian
# [42] = tested on: NCI-H522 lung
# [43] = tested on: SF-295 CNS
# [44] = tested on: DMS 114 small cell lung
# [45] = tested on: SK-MEL-2 melanoma
# [46] = tested on: SK-MEL-5 melanoma
# [47] = tested on: HCT-15 colon
# [48] = tested on: M19-MEL melanoma
# [49] = tested on: U251 CNS
# [50] = tested on: HOP-92 NSCLC
# [51] = tested on: IGROV1 ovarian
# [52] = tested on: KM12 colon
# [53] = tested on: CAKI-1 renal
# [54] = tested on: EKVX NSCLC
# [55] = tested on: XF 498 CNS
# [56] = tested on: SNB-19 CNS
# [57] = tested on: HCC-2998 colon
# [58] = tested on: A498 renal
structure (smiles),measurement,setting,value
CN(C)c1ccc(C(C#N)NNC(=O)Cc2ccccc2)cc1 (stereo not drawn),TGI,[1],> 100 µM
same,TGI,[2],> 100 µM
same,TGI,[3],> 100 µM
same,TGI,[4],> 100 µM
same,TGI,[5],> 100 µM
same,TGI,[6],> 100 µM
same,TGI,[7],> 100 µM
same,TGI,[8],> 100 µM
same,TGI,[9],> 100 µM
same,TGI,[10],> 100 µM
same,TGI,[11],> 100 µM
same,TGI,[12],> 100 µM
same,TGI,[13],> 100 µM
same,TGI,[14],> 100 µM
same,TGI,[15],> 100 µM
same,TGI,[16],> 100 µM
same,TGI,[17],> 100 µM
same,TGI,[18],> 100 µM
same,TGI,[19],> 100 µM
same,TGI,[20],> 100 µM
same,TGI,[21],> 100 µM
same,TGI,[22],> 100 µM
same,TGI,[23],> 100 µM
same,TGI,[24],> 100 µM
same,TGI,[25],> 100 µM
same,TGI,[26],> 100 µM
same,TGI,[27],> 100 µM
same,TGI,[28],> 100 µM
same,TGI,[29],> 100 µM
same,TGI,[30],> 100 µM
same,TGI,[31],> 100 µM
same,TGI,[32],> 100 µM
same,TGI,[33],> 100 µM
same,TGI,[34],> 100 µM
same,TGI,[35],> 100 µM
same,TGI,[36],> 100 µM
same,TGI,[37],> 100 µM
same,TGI,[38],> 100 µM
same,TGI,[39],> 100 µM
same,TGI,[40],> 100 µM
same,TGI,[41],> 100 µM
same,TGI,[42],> 100 µM
same,TGI,[43],> 100 µM
same,TGI,[44],> 100 µM
same,TGI,[45],> 100 µM
same,TGI,[46],> 100 µM
same,TGI,[47],> 100 µM
same,TGI,[48],> 100 µM
same,TGI,[49],> 100 µM
same,TGI,[50],> 100 µM
same,TGI,[51],> 100 µM
same,TGI,[52],> 100 µM
same,TGI,[53],> 100 µM
CCOC(=O)C(Cc1c(C=O)[nH]c2ccccc12)(NC(=O)c1ccccc1)C(=O)OCC,TGI,[1],34.7 µM
same,TGI,[2],32.1 µM
same,TGI,[4],39.5 µM
same,TGI,[5],42.2 µM
same,TGI,[6],> 100 µM
same,TGI,[7],34.2 µM
same,TGI,[10],65.7 µM
same,TGI,[54],42.7 µM
same,TGI,[11],30.3 µM
same,TGI,[13],26.6 µM
same,TGI,[14],33.7 µM
same,TGI,[15],26 µM
same,TGI,[16],69.9 µM
same,TGI,[17],> 100 µM
same,TGI,[18],> 100 µM
same,TGI,[19],25 µM
same,TGI,[21],45.2 µM
same,TGI,[22],39 µM
same,TGI,[23],62.4 µM
same,TGI,[24],37.1 µM
same,TGI,[26],33.9 µM
same,TGI,[27],39.3 µM
same,TGI,[28],35.3 µM
same,TGI,[29],40.3 µM
same,TGI,[30],59.7 µM
same,TGI,[34],39.2 µM
same,TGI,[55],32.1 µM
same,TGI,[35],37.1 µM
same,TGI,[56],18.4 µM
same,TGI,[36],37.2 µM
same,TGI,[57],24.6 µM
same,TGI,[38],45.9 µM
same,TGI,[40],34.7 µM
same,TGI,[41],79.8 µM
same,TGI,[43],33 µM
same,TGI,[44],39 µM
same,TGI,[45],32.4 µM
same,TGI,[46],24.5 µM
same,TGI,[47],29.8 µM
same,TGI,[48],31.8 µM
same,TGI,[49],25.5 µM
same,TGI,[50],31.3 µM
same,TGI,[51],43.7 µM
same,TGI,[52],26.9 µM
COc1c(Cl)cc(Cl)cc1S(=O)O,TGI,[4],> 100 µM
same,TGI,[6],> 100 µM
same,TGI,[7],> 100 µM
same,TGI,[8],> 100 µM
same,TGI,[9],> 100 µM
same,TGI,[54],> 100 µM
same,TGI,[11],> 100 µM
same,TGI,[12],> 100 µM
same,TGI,[13],> 100 µM
same,TGI,[14],> 100 µM
same,TGI,[15],> 100 µM
same,TGI,[16],> 100 µM
same,TGI,[17],> 100 µM
same,TGI,[19],> 100 µM
same,TGI,[21],> 100 µM
same,TGI,[22],> 100 µM
same,TGI,[23],> 100 µM
same,TGI,[24],> 100 µM
same,TGI,[25],> 100 µM
same,TGI,[26],> 100 µM
same,TGI,[27],> 100 µM
same,TGI,[28],> 100 µM
same,TGI,[29],> 100 µM
same,TGI,[30],> 100 µM
same,TGI,[31],> 100 µM
same,TGI,[32],> 100 µM
same,TGI,[34],> 100 µM
same,TGI,[55],> 100 µM
same,TGI,[35],> 100 µM
same,TGI,[56],> 100 µM
same,TGI,[36],> 100 µM
same,TGI,[37],> 100 µM
same,TGI,[58],> 100 µM
same,TGI,[57],> 100 µM
same,TGI,[39],> 100 µM
same,TGI,[41],> 100 µM
same,TGI,[42],> 100 µM
same,TGI,[44],> 100 µM
same,TGI,[45],> 100 µM
same,TGI,[48],> 100 µM
same,TGI,[49],> 100 µM
same,TGI,[52],> 100 µM
COP(=O)(CC(=O)C1OC(C)(C)OC1C(O)COCc1ccccc1)OC (stereo not drawn),TGI,[1],> 100 µM
same,TGI,[2],> 100 µM
same,TGI,[3],> 100 µM
same,TGI,[4],> 100 µM
same,TGI,[5],> 100 µM
same,TGI,[6],> 100 µM
same,TGI,[7],> 100 µM
same,TGI,[8],> 100 µM
same,TGI,[9],> 100 µM
same,TGI,[10],> 100 µM
same,TGI,[54],> 100 µM
same,TGI,[11],> 100 µM
same,TGI,[12],> 100 µM
same,TGI,[13],> 100 µM
same,TGI,[14],> 100 µM
same,TGI,[15],> 100 µM
same,TGI,[16],> 100 µM
same,TGI,[17],> 100 µM
same,TGI,[18],> 100 µM
same,TGI,[19],> 100 µM
same,TGI,[20],> 100 µM
same,TGI,[21],> 100 µM
same,TGI,[22],> 100 µM
same,TGI,[23],> 100 µM
same,TGI,[24],> 100 µM
same,TGI,[25],> 100 µM
same,TGI,[26],> 100 µM
same,TGI,[27],> 100 µM
same,TGI,[28],> 100 µM
same,TGI,[29],> 100 µM
same,TGI,[30],> 100 µM
same,TGI,[31],> 100 µM
same,TGI,[32],> 100 µM
same,TGI,[33],> 100 µM
same,TGI,[34],> 100 µM
same,TGI,[35],> 100 µM
same,TGI,[36],> 100 µM
same,TGI,[37],> 100 µM
same,TGI,[58],> 100 µM
same,TGI,[57],> 100 µM
same,TGI,[38],> 100 µM
same,TGI,[39],> 100 µM
same,TGI,[40],> 100 µM
same,TGI,[43],> 100 µM
same,TGI,[44],> 100 µM
same,TGI,[45],> 100 µM
same,TGI,[46],> 100 µM
same,TGI,[47],> 100 µM
same,TGI,[48],> 100 µM
same,TGI,[49],> 100 µM
same,TGI,[50],> 100 µM
same,TGI,[51],> 100 µM
same,TGI,[52],> 100 µM
same,TGI,[53],> 100 µM
Nc1cc(C(=O)NC2C3CC4CC(C3)CC2C4)[nH]c(=S)n1 (stereo not drawn),TGI,[1],> 100 µM
same,TGI,[2],> 100 µM
same,TGI,[3],> 100 µM
same,TGI,[4],> 100 µM
same,TGI,[5],> 100 µM
same,TGI,[6],> 100 µM
same,TGI,[7],> 100 µM
same,TGI,[9],> 100 µM
same,TGI,[10],> 100 µM
same,TGI,[54],> 100 µM
same,TGI,[11],> 100 µM
same,TGI,[12],> 100 µM
same,TGI,[13],> 100 µM
same,TGI,[14],> 100 µM
same,TGI,[15],> 100 µM
same,TGI,[17],> 100 µM
same,TGI,[19],> 100 µM
same,TGI,[21],> 100 µM
same,TGI,[22],> 100 µM
same,TGI,[23],> 100 µM
same,TGI,[24],> 100 µM
same,TGI,[25],> 100 µM
same,TGI,[26],> 100 µM
same,TGI,[29],> 100 µM
same,TGI,[30],> 100 µM
same,TGI,[32],> 100 µM
same,TGI,[34],> 100 µM
same,TGI,[55],> 100 µM
same,TGI,[35],> 100 µM
same,TGI,[56],> 100 µM
same,TGI,[36],> 100 µM
same,TGI,[37],> 100 µM
same,TGI,[58],> 100 µM
same,TGI,[57],> 100 µM
same,TGI,[38],> 100 µM
same,TGI,[39],> 100 µM
same,TGI,[41],> 100 µM
same,TGI,[42],> 100 µM
same,TGI,[46],> 100 µM
same,TGI,[47],> 100 µM
same,TGI,[48],> 100 µM
same,TGI,[49],> 100 µM
same,TGI,[50],> 100 µM
same,TGI,[51],> 100 µM
same,TGI,[53],> 100 µM
